PubChem BioAssay (NCI)
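Growth conditions: 96-well plates. Treatment: test compound, 48 hours, 5 concentrations. Analysis: linear interpolation between bracketing concentrations; unreached endpoints set to highest concentration. At the GI50, growth is halved. TGI is the concentration that stops growth completely.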

Assays:
Assay in all cases: NCI tumour cell line growth inhibition, 48 h
[1] = system: A498 renal
[2] = system: HCT-15 colon
[3] = system: OVCAR-4 ovarian
[4] = system: HL-60(TB) leukemia
[5] = system: LOX IMVI melanoma
[6] = system: HCT-116 colon
[7] = system: OVCAR-3 ovarian
[8] = system: NCI-H23 lung
[9] = system: SR leukemia
[10] = system: MDA-MB-231 breast

Row | Compound | TGI [1] | TGI [2] | TGI [3] | TGI [4] | TGI [5] | TGI [6] | TGI [7] | TGI [8] | GI50 [1] | GI50 [2] | GI50 [3] | GI50 [4] | GI50 [6] | GI50 [7] | GI50 [8] | GI50 [9] | TGI [9] | GI50 [10] | TGI [10] | GI50 [5]
1 | CCCCOC(=O)NC(=O)c1cn(C2CCCCC2)c(=O)[nH]c1=O | 49 µM | > 100 µM | 48.6 µM | > 100 µM | > 100 µM | 50.1 µM | > 100 µM | > 100 µM | – | – | – | – | – | – | – | – | – | – | – | –
2 | N.N.O=C([O-])P(=O)([O-])[O-].[Na+].[Pt+4] | > 100 µM | > 100 µM | > 100 µM | > 100 µM | – | > 100 µM | > 100 µM | > 100 µM | > 100 µM | > 100 µM | > 100 µM | > 100 µM | > 100 µM | > 100 µM | > 100 µM | – | – | – | – | –
3 | COc1ncc(-c2ccc3ncnc(Nc4cccc(Cl)c4)c3c2)cc1NS(=O)(=O)CCN1CCOCC1 | – | > 100 µM | > 100 µM | > 100 µM | – | > 100 µM | – | > 100 µM | – | 0.448 µM | 1.14 µM | 0.38 µM | 1.49 µM | – | 0.768 µM | 0.653 µM | > 100 µM | – | – | –
4 | CCO/N=C(/N)c1ncn(Cc2ccccc2)c1NCC(OCC)OCC | > 100 µM | > 100 µM | – | – | > 100 µM | > 100 µM | > 100 µM | – | – | – | – | – | – | – | – | – | – | – | – | –
5 | Cc1[nH]c2ccccc2c1C1Cc2ccccc2N1C(=O)/C(Cl)=C/c1ccccc1 (stereo unspecified) | > 100 µM | > 100 µM | > 100 µM | > 100 µM | > 100 µM | > 100 µM | > 100 µM | > 100 µM | – | – | – | – | – | – | – | – | > 100 µM | – | – | –
6 | CCOc1ccc2c(c1)[n+]([O-])c(-c1nc3ccccc3s1)c(N)[n+]2[O-] | > 100 µM | > 100 µM | > 100 µM | > 100 µM | > 100 µM | – | > 100 µM | > 100 µM | – | – | – | – | – | – | – | – | – | – | – | –
7 | N#C/C(=C\c1cc2ccccc2c2ccccc12)c1ccccc1 | 38.3 µM | 39.4 µM | 34.6 µM | 14.8 µM | > 100 µM | 18.2 µM | > 25.6 µM | > 95 µM | – | – | – | – | – | – | – | – | 7.91 µM | – | – | –
8 | OC/C=C(\I)CCCOCOCc1ccccc1 | > 100 µM | > 100 µM | > 100 µM | 35.8 µM | 45.9 µM | > 100 µM | > 100 µM | > 100 µM | – | – | – | – | – | – | – | – | – | – | – | –
9 | COc1ccc(/C(Cl)=C(\C=O)c2ccc([N+](=O)[O-])cc2)cc1 | 74.1 µM | > 70.3 µM | 57.3 µM | 10.7 µM | > 48.1 µM | – | 53.4 µM | 50.6 µM | – | – | – | – | – | – | – | – | – | – | – | –
10 | CC(C)c1ccc(C(c2ccc(OCC(=O)O)cc2)c2ccc(C(C)C)cc(=O)c2O)c(O)c(=O)c1 | 69.5 µM | 22.9 µM | 12.8 µM | 15 µM | 14.8 µM | 14.1 µM | 8.31 µM | 20.4 µM | – | – | – | – | – | – | – | – | – | – | – | –
11 | O=C(O)[C@@H]1CCCCN1Cc1cc2cc3c(cc2c2cc(OCc4ccccc4)ccc12)OCO3 | – | 13.7 µM | – | > 100 µM | 3.56 µM | 31.1 µM | 36.2 µM | 45.7 µM | – | 3.27 µM | – | > 100 µM | 17.4 µM | 6.79 µM | 21.6 µM | – | – | 1.9 µM | 6.21 µM | 1.75 µM
12 | COc1ccc2nc3cc(Cl)ccc3c(NCCN)c2c1 | 23.9 µM | 3.9 µM | 3.02 µM | 4.67 µM | – | – | – | – | 11.7 µM | 1.87 µM | 1.61 µM | 2.16 µM | – | – | – | 1.44 µM | 5.4 µM | – | – | –
13 | COC(=O)C(=O)C(C(=O)C=C(C)C)C(=O)C(=O)Nc1ccc(C)cc1C (stereo unspecified) | > 100 µM | > 100 µM | > 100 µM | > 100 µM | > 100 µM | > 100 µM | > 100 µM | > 100 µM | – | – | – | – | – | – | – | – | > 100 µM | – | – | –
14 | CC(C)N1CN(C(C(=O)N[C@@H]2C(=O)N3C2SC(C)(C)C3C(=O)O)c2ccccc2)CSC1=S (stereo partly specified) | > 100 µM | > 100 µM | > 100 µM | > 100 µM | > 100 µM | > 100 µM | > 100 µM | > 100 µM | – | – | – | – | – | – | – | – | – | – | – | –
15 | CCc1ccc(Nc2ccc([N+](=O)[O-])cc2[N+](=O)[O-])cc1 | 66.9 µM | > 100 µM | > 100 µM | > 100 µM | – | > 100 µM | > 100 µM | > 100 µM | – | – | – | – | – | – | – | – | – | – | – | –
16 | Fc1ccc(C2SCc3nc4ccccc4n32)cc1Cl (stereo unspecified) | > 100 µM | – | > 100 µM | 47.6 µM | 40.3 µM | – | – | 58.1 µM | – | – | – | – | – | – | – | – | > 100 µM | – | – | –
17 | CC1=N/C(=C\c2cccc([N+](=O)[O-])c2)C(=O)O1 | > 100 µM | > 100 µM | – | > 100 µM | – | > 100 µM | – | > 100 µM | – | – | – | – | – | – | – | – | – | – | – | –
